# Reference: patent publication US20160176880A1, “SUBSTITUTED IMIDAZO[1,2-A]PYRAZINECARBOXAMIDES AND USE THEREOF” (BAYER PHARMA AKTIENGESELLSCHAFT, priority 2013, published 2016)
# Target: T1, recombinant guanylate cyclase reporter cell line (Rattus norvegicus, UniProt P19686+P20595)
# T1 construct: expressed in transfected cells
# T1 sequence (P19686 1-690): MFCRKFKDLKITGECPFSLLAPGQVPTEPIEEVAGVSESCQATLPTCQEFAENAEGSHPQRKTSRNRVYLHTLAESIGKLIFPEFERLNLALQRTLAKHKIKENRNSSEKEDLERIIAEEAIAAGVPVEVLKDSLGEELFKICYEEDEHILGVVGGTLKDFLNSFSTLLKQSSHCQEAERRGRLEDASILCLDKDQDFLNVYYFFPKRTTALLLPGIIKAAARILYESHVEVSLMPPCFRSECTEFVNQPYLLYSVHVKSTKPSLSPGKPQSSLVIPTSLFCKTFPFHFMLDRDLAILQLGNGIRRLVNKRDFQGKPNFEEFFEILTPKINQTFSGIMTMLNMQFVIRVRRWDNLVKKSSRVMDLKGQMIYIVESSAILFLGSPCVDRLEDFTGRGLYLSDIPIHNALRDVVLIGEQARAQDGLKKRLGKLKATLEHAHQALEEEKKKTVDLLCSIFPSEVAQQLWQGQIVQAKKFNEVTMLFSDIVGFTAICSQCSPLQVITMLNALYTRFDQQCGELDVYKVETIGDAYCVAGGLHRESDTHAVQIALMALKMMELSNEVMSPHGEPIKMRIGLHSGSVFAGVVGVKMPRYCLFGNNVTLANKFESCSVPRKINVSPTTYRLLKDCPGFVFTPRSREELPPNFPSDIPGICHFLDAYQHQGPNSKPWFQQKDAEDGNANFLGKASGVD
# T1 sequence (P20595 1-619): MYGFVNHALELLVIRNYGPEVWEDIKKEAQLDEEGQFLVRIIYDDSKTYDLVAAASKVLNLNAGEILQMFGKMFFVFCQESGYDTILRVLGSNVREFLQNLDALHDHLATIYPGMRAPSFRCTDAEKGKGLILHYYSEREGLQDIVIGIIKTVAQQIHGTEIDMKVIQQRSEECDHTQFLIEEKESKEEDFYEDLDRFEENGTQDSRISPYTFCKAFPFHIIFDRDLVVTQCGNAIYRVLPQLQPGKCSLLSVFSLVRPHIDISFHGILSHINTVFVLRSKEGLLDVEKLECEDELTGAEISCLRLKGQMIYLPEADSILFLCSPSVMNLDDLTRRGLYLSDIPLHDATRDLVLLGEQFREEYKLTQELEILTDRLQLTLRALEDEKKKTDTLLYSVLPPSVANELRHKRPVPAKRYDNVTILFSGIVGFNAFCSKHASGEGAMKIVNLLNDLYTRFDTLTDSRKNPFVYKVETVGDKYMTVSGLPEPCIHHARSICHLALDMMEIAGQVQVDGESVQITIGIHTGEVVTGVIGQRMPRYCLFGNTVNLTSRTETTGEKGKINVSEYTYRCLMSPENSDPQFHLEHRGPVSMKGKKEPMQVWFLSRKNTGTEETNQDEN
# Experiment: Effect on a recombinant guanylate cyclase reporter cell line
# Assay type: cell-based
# Settings: MEC = minimum effective concentration; in some cases mean values for individual determinations
# Method: B-2. Effect on a Recombinant Guanylate Cyclase Reporter Cell Line
# The cellular action of the compounds of the invention is determined using a recombinant guanylate cyclase reporter cell line, as described in F. Wunder et al., Anal. Biochem. 339, 104-112 (2005).
# Representative MEC values (MEC=minimum effective concentration) for the compounds of the invention are shown in the table below (in some cases as mean values for individual determinations): […]
row,Structure (SMILES),MEC [µM]
1,"Cc1cn2c(C(=O)NCC3(O)CC3)c(C)nc2c(OCc2c(F)cccc2F)n1 [Example 32, 8-[(2,6-difluorobenzyl)oxy]-N-[(1-hydroxycyclopropyl)methyl]-2,6-dimethylimidazo[1,2-a]pyrazine-3-carboxamide]",1
2,"Cc1cn2c(C(=O)Nc3ccnc4ccc(F)cc34)c(C)nc2c(OCc2c(F)cccc2F)n1 [Example 10, 8-[(2,6-Difluorobenzyl)oxy]-N-(6-fluoroquinolin-4-yl)-2,6-dimethylimidazo[1,2-a]pyrazine-3-carboxamide]",0.3
3,"Cc1cn2c(C(=O)NCC(C)(N)C3CC3)c(C)nc2c(OCc2c(F)cccc2F)n1 (racemic) [Example 20, rac-N-(2-amino-2-cyclopropylpropyl)-8-[(2,6-difluorobenzyl)oxy]-2,6-dimethylimidazo[1,2-a]pyrazine-3-carboxamide]",3
4,"Cc1cn2c(C(=O)NC3CC3c3ccccc3)c(C)nc2c(OCc2c(F)cccc2F)n1 (racemic) [Example 17, rac-8-[(2,6-difluorobenzyl)oxy]-2,6-dimethyl-N-(2-phenylcyclopropyl)imidazo[1,2-a]pyrazine-3-carboxamide]",10
